Calls of active or inactive are those of the source. No cut-off for these calls is given here.

The test system of data set [1] is Mus musculus. As to the kind of experiment: Anticonvulsant activity in Kunming mouse assessed as reduction in MES-induced seizure at 30 mg/kg, ip measured after 30 mins. It is filed as functional, organism-based.
Data set [2] relates to Mus musculus. As to the kind of experiment: Anticonvulsant activity in Kunming mouse assessed as reduction in MES-induced seizure at 100 mg/kg, ip measured after 30 mins. It is filed as functional, organism-based.
The test system of data set [3] is Mus musculus. As to the kind of experiment: Anticonvulsant activity in Kunming mouse assessed as reduction in ScPTZ-induced seizure at 100 mg/kg, ip measured after 30 mins. It counts as functional, organism-based.
The nature of data set [4]: Neurotoxicity in Kunming mouse at 100 mg/kg, ip measured after 30 mins by rotarod test. It is filed as toxicity, organism-based. Conditions: in vivo, 0.5 h.
Data set [5] is described as follows: Neurotoxicity in Kunming mouse at 300 mg/kg, ip measured after 30 mins by rotarod test. It is filed as toxicity, organism-based. Conditions: in vivo, 0.5 h. Background: In the rotarod test animals must keep their balance on a rotating rod.
For data set [6], the system named is Mus musculus. Put plainly: Anticonvulsant activity in ip dosed Kunming mouse assessed as reduction in MES-induced seizure measured after 30 mins. The settings on record: 0.5 h. It counts as functional.
Data set [7] relates to Mus musculus. Put plainly: Anticonvulsant activity in ip dosed Kunming mouse assessed as reduction in ScPTZ-induced seizure measured after 30 mins. It is filed as functional. The settings on record: 0.5 h.
Data set [8] can be described thus: Neurotoxicity in ip dosed Kunming mouse measured after 30 mins by rotarod test. It counts as toxicity, organism-based. The settings on record: in vivo.
Data set [9] in a line: Protection index, ratio of TD50 for neurotoxicity in ip dosed Kunming mouse to ED50 for anticonvulsant activity in ip dosed MES-induced Kunming mouse. It counts as toxicity, organism-based. The settings on record: in vivo, read-out: TI.
Data set [10] is described as follows: Protection index, ratio of TD50 for neurotoxicity in ip dosed Kunming mouse to ED50 for anticonvulsant activity in ip dosed ScPTZ-induced Kunming mouse. It is filed as toxicity, organism-based. Conditions: in vivo, read-out: TI.
A short description of data set [11]: Displacement of [3H]flunitrazepam from GABA-A receptor benzodiazepine site in mouse cerebellum synaptosomal membrane. It is filed as subcellular, Synaptosome. In general terms: In a radioligand displacement assay an active substance lowers the binding of a labelled ligand.
The test system of data set [12] is Rattus norvegicus. Put plainly: Effect on GABA level in Wistar rat brain assessed as increase in GABA level at 30 mg/kg, ip measured after 2 hrs. It is filed as functional, organism-based.
The test system of data set [13] is Rattus norvegicus. Put plainly: Effect on GABA level in Wistar rat brain assessed as increase in GABA level at 30 mg/kg, ip measured after 7 days. It counts as functional, organism-based. Conditions: time 7.0 day.
For data set [14], the system named is Rattus norvegicus. Put plainly: Anxiolytic activity in Wistar rat assessed as increase in time spent in open sided arms at 1 mg/kg, ip measured for 5 mins by elevated plus maze test. It is filed as functional, organism-based.
For data set [15], the system named is Rattus norvegicus. As to the kind of experiment: Anxiolytic activity in Wistar rat assessed as increase in time spent in open sided arms at 1 mg/kg, ip measured for 5 mins in presence of GABAA receptor antagonist by elevated plus maze test. It is filed as functional, organism-based.
For data set [16], the system named is Mus musculus. As to the kind of experiment: Anticonvulsant activity in Kunming mouse assessed as reduction in ScPTZ-induced seizure at 30 mg/kg, ip measured after 30 mins. It counts as functional, organism-based.
Data set [17] is described as follows: Neurotoxicity in Kunming mouse at 30 mg/kg, ip measured after 30 mins by rotarod test. Conditions: in vivo, 0.5 h. It counts as toxicity, organism-based.
Data set [18] relates to Mus musculus. As to the kind of experiment: Anticonvulsant activity in Kunming mouse assessed as reduction in MES-induced seizure at 2 mg/kg, ip measured after 30 mins. It is filed as functional, organism-based.
For data set [19], the system named is Mus musculus. Put plainly: Anticonvulsant activity in Kunming mouse assessed as reduction in MES-induced seizure at 300 mg/kg, ip measured after 30 mins. It counts as functional, organism-based.
The test system of data set [20] is Mus musculus. As to the kind of experiment: Anticonvulsant activity in Kunming mouse assessed as reduction in ScPTZ-induced seizure at 300 mg/kg, ip measured after 30 mins. It counts as functional, organism-based.

One may read the ED50 as the dose at which the effect has come halfway, by size or by number of responders. One may read the TD50 as the 50% point of the dose-response relation for the toxic effect studied. A high value points to harm only at a large dose. As usually defined, the IC50 is the concentration needed to halve the response being measured. A higher IC50 goes with weaker potency in that assay. Regarding `CCCCCCSc1nnc(COc2ccc3c(c2)CCC(=O)N3)o1`, the result with Mus musculus [1], in the data set with Mus musculus [2] and in the data set with Mus musculus [3] was Active. For the same compound, the Activity result in data set [4] and in data set [5] was “Non-Toxic” each time. For the same compound, the 50% effective dose (ED50) in the data set on Mus musculus [6] amounted to 10.4 mg/kg; in the data set on Mus musculus [7] it was 17.9 mg/kg. The same compound registered a TD50 at 0.5 h in [8] of 466 mg/kg. Moreover, the selectivity ratio in data set [9] was found to be 44.7; in data set [10], 26. In [11], this compound had an IC50 of 880 nM.

Regarding `CCCCCSc1nnc(COc2ccc3c(c2)CCC(=O)N3)o1`, the outcome in the data set with Mus musculus [1], with Mus musculus [2], with Mus musculus [3], in the data set on Rattus norvegicus [12], in the data set with Rattus norvegicus [13] and with Rattus norvegicus [14] was Active. Moreover, the result with Mus musculus [16] was Active. Further, the Activity entry in [4] and in data set [5] was “Non-Toxic” throughout. In addition, the ED50 with Mus musculus [6] was 8.9 mg/kg; in the data set with Mus musculus [7] it was 10.2 mg/kg. Moreover, the TD50 at 0.5 h in data set [8] worked out at 575 mg/kg. Also, the selectivity ratio in [9] was 64.6; in data set [10] it was 56.4. In [11], this compound showed an IC50 of 110 nM. In addition, in the data set on Rattus norvegicus [15], the outcome was inactive.

On to `NC(=O)N1c2ccccc2C=Cc2ccccc21` [CARBAMAZEPINE], for which the result with Mus musculus [1] was Active. Further, the Activity result in [17] is reported as “Non-Toxic”. Besides, the ED50 in the data set on Mus musculus [6] amounted to 11.8 mg/kg. Moreover, in [9], the selectivity ratio is 6.4.

On to `CN1C(=O)CN=C(c2ccccc2)c2cc(Cl)ccc21` [DIAZEPAM], for which the outcome in the data set on Mus musculus [18] and in the data set on Rattus norvegicus [14] was Active. Further, the 50% inhibitory concentration (IC50) in [11] was 42 nM.

For `CCCCCCCSc1nnc(COc2ccc(-n3cnnc3)cc2)o1`, the result with Mus musculus [1] and in the data set with Mus musculus [16] was inactive. The result in the data set with Mus musculus [19] and in the data set on Mus musculus [20] was Active. The Activity entry in data set [4] and in data set [5] was “Non-Toxic” each time.

On to `CCCCCSc1nnc(COc2ccc(-n3cnnc3)cc2)o1`, for which the result in the data set on Mus musculus [1], with Mus musculus [2] and in the data set on Mus musculus [3] was Active. In addition, the Activity result in [4] and in data set [5] was “Non-Toxic” throughout. For the same compound, the ED50 was found to be 18.7 mg/kg with Mus musculus [6] and 27.9 mg/kg in the data set with Mus musculus [7]. Further, the TD50 at 0.5 h in data set [8] was 421 mg/kg. Also, the selectivity ratio in data set [9] was 22.5; in data set [10], 15.1. Further, the IC50 in data set [11] turned out to be 3430 nM.

Consider `CCCCCCSc1nnc(COc2ccc(-n3cnnc3)cc2)o1`, for which the outcome in the data set on Mus musculus [2] and with Mus musculus [3] was Active. For the same compound, the Activity entry in data set [4] and in data set [5] was “Non-Toxic” in each case. In addition, the results for the 50% effective dose (ED50) with Mus musculus [6] and in the data set with Mus musculus [7] were 26.6 mg/kg and 28.4 mg/kg, respectively. This compound also had a TD50 at 0.5 h in data set [8] of 385 mg/kg. Moreover, the selectivity ratio was 14.4 in data set [9] and 13.5 in [10]. The concentration for half-maximal inhibition (IC50) in [11] was 9310 nM.

Take `CC(=O)Nc1ccc(OCc2nnc(SCc3ccccc3F)o2)cc1`: the result with Mus musculus [19] and with Mus musculus [20] was Active. Further, the Activity result in data set [4] and in [5] was “Non-Toxic” in each case. Also, the outcome in the data set with Mus musculus [16] was inactive.

The record behind these values is ChEMBL document CHEMBL4765425, “Synthesis of 1,3,4-oxadiazole derivatives with anticonvulsant activity and their binding to the GABA receptor” (Eur J Med Chem, 2020).
